# Biological target: T1, MAGL (Homo sapiens, UniProt Q99685)
# T1 sequence (Q99685 1-303): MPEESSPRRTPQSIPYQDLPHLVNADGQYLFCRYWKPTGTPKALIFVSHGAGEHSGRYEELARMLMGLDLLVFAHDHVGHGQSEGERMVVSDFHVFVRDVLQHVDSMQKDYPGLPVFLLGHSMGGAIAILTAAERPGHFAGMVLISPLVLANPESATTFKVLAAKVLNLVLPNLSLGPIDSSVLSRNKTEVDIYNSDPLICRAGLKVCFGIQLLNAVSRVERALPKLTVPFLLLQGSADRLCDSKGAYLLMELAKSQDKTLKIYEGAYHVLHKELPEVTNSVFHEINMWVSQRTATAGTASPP
# Assay: 2-AG assay (MAGL inhibitory activity, hydrolysis of 2-arachidonoylglycerol followed by mass spectrometry)
# Type: biochemical
# Conditions: 50 pM MAGL, 8 μM 2-arachidonoylglycerol, 15 min preincubation, 30 min incubation at RT
# Protocol: Compounds were profiled for MAGL inhibitory activity by determining the enzymatic activity by following the hydrolysis of the natural substrate 2-arachidonoylglycerol (2-AG) resulting in arachidonic acid, which can be followed by mass spectrometry. This assay is hereinafter abbreviated “2-AG assay”.
# The 2-AG assay was carried out in 384 well assay plates (PP, Greiner Cat #784201) in a total volume of 20 μL. Compound dilutions were made in 100% DMSO (VWR Chemicals 23500.297) in a polypropylene plate in 3-fold dilution steps to give a final concentration range in the assay from 12.5 μM to 0.8 pM. 0.25 μL compound dilutions (100% DMSO) were added to 9 μL MAGL in assay buffer (50 mM TRIS (GIBCO, 15567-027), 1 mM EDTA (Fluka, 03690-100 mL), 0.01% (v/v) Tween. After shaking, the plate was incubated for 15 min at RT. To start the reaction, 10 μL 2-arachidonoylglycerol in assay buffer was added. The final concentrations in the assay was 50 pM MAGL and 8 μM 2-arachidonoylglyerol. After shaking and 30 min incubation at RT, the reaction was quenched by the addition of […] of ACN containing 4 μM of d8-arachidonic acid. The amount of arachidonic acid was traced by an online SPE system (Agilent Rapidfire) coupled to a triple quadrupole mass spectrometer (Agilent 6460). A C18 SPE cartridge (G9205A) was used in an ACN/water liquid setup. The mass spectrometer was operated in negative electrospray mode following the mass transitions 303.1→259.1 for arachidonic acid and 311.1→267.0 for d8-arachidonic acid. The activity of the compounds was calculated based on the ratio of intensities [arachidonic acid/d8-arachidonic acid].
row,SMILES,IC50 [nM]
1,"Cc1nc(N)ccc1C(=O)N1CCN2C[C@@](O)(c3ccc(Cl)cc3)CC[C@@H]2C1 [Example 8, [(7S,9aR)-7-(4-chlorophenyl)-7-hydroxy-3,4,6,8,9,9a-hexahydro-1H-pyrido[1,2-a]pyrazin-2-yl]-(6-amino-2-methylpyridin-3-yl)methanone]",2960
2,"O=C(c1cccc(N2CCNCC2)c1F)N1CCN2C[C@@](O)(c3ccc(Cl)cc3)CC[C@@H]2C1 [Example 23, [(7S,9aR)-7-(4-chlorophenyl)-7-hydroxy-3,4,6,8,9,9a-hexahydro-1H-pyrido[1,2-a]pyrazin-2-yl]-(2-fluoro-3-piperazin-1-ylphenyl)methanone]",656
3,"O=C1CN(c2cccc(C(=O)N3CCN4C[C@@](O)(c5ccc(Cl)cc5)CC[C@@H]4C3)c2F)CCN1 [Example 34, 4-(3-((7S,9aR)-7-(4-chlorophenyl)-7-hydroxyoctahydro-2H-pyrido[1,2-a]pyrazine-2-carbonyl)-2-fluorophenyl)piperazin-2-one]",145
4,"COc1cccc(C(=O)N2CCN3C[C@@](O)(C4CCCC4)CC[C@@H]3C2)c1Cl (racemic) [Example 25, (2-chloro-3-methoxyphenyl)-[rac-(7R,9aS)-7-cyclopentyl-7-hydroxy-3,4,6,8,9,9a-hexahydro-1H-pyrido[1,2-a]pyrazin-2-yl]methanone]",548
5,"CC1(O)CN(c2cccc(C(=O)N3CCN4C[C@@](O)(c5ccc(Cl)cc5)CC[C@@H]4C3)c2Cl)C1 [Example 46, [(7S,9aR)-7-(4-chlorophenyl)-7-hydroxy-3,4,6,8,9,9a-hexahydro-1H-pyrido[1,2-a]pyrazin-2-yl]-[2-chloro-3-(3-hydroxy-3-methylazetidin-1-yl)phenyl]methanone]",234
6,"Cc1c[nH]nc1-c1cccc(C(=O)N2CCN3C[C@@](O)(c4ccc(Cl)cc4)CC[C@@H]3C2)c1F [Example 15, [(7S,9aR)-7-(4-chlorophenyl)-7-hydroxy-3,4,6,8,9,9a-hexahydro-1H-pyrido[1,2-a]pyrazin-2-yl]-[2-fluoro-3-(4-methl1-1H-pyrazol-3-yl)phenyl]methanone]",168
7,"O=C(c1cccc(N2CCNC2=O)c1Cl)N1CCN2C[C@@](O)(c3ccc(Cl)cc3)CC[C@@H]2C1 [Example 14, 1-[3-[(7S,9aR)-7-(4-chlorophenyl)-7-hydroxy-3,4,6,8,9,9a-hexahydro-1H-pyrido[1,2-a]pyrazine-2-carbonyl]-2-chlorophenyl]imidazolidin-2-one]",2160
8,"COc1cccc(C(=O)N2CCN3C[C@](O)(c4ccc(F)c(F)c4)CC[C@H]3C2)c1Cl [Example 60, [(7R,9aS)-7-(3,4-difluorophenyl)-7-hydroxy-3,4,6,8,9,9a-hexahydro-1H-pyrido[1,2-a]pyrazin-2-yl]-(2-chloro-3-methoxyphenyl)methanone]",118
9,"COc1cccc(C(=O)N2CCN3C[C@](O)(c4ccc(C(F)(F)F)cn4)CC[C@H]3C2)c1Cl [Example 19, [(7S,9aS)-7-hydroxy-7-[5-(trifluoromethyl)pyridin-2-yl]-3,4,6,8,9,9a-hexahydro-1H-pyrido[1,2-a]pyrazin-2-yl]-(2-chloro-3-methoxyphenyl)methanone]",150
10,"O=C(c1cccc(N2CCOCC2)c1F)N1CCN2C[C@@](O)(c3ccc(Cl)cc3)CC[C@@H]2C1 [Example 21, [(7S,9aR)-7-(4-chlorophenyl)-7-hydroxy-3,4,6,8,9,9a-hexahydro-1H-pyrido[1,2-a]pyrazin-2-yl]-(2-fluoro-3-morpholino-phenyl)methanone]",351

# Compounds with a lower IC50, results first:
row,IC50 [nM],SMILES
1,41.5,"O=C(c1cccc(N2CCC[C@H](O)C2)c1Cl)N1CCN2C[C@@](O)(c3ccc(F)c(Cl)c3)CC[C@@H]2C1 [Example 47, [(7S,9aR)-7-(3-chloro-4-fluorophenyl)-7-hydroxy-3,4,6,8,9,9a-hexahydro-1H-pyrido[1,2-a]pyrazin-2-yl]-[2-chloro-3-[(3S)-3-hydroxypiperidin-1-yl]phenyl]methanone]"
2,10.9,"O=C(c1cccc(N2C[C@H](O)[C@@H](O)C2)c1Cl)N1CCN2C[C@@](O)(c3ccc(F)c(Cl)c3)CC[C@@H]2C1 [Example 51, [(7S,9aR)-7-(3-chloro-4-fluorophenyl)-7-hydroxy-3,4,6,8,9,9a-hexahydro-1H-pyrido[1,2-a]pyrazin-2-yl]-[2-chloro-3-[(3S,4S)-3,4-dihydroxypyrrolidin-1-yl]phenyl]methanone]"
3,18.8,"COc1cccc(C(=O)N2CCN3C[C@](O)(c4ccc(F)c(Cl)c4)CC[C@H]3C2)c1Cl [Example 2, [(7R,9aS)-7-(3-chloro-4-fluorophenyl)-7-hydroxy-3,4,6,8,9,9a-hexahydro-1H-pyrido[1,2-a]pyrazin-2-yl]-(2-chloro-3-methoxyphenyl)methanone]"
4,82.5,"O=C(c1cccc(-c2cnsc2)c1Cl)N1CCN2C[C@@](O)(c3ccc(Cl)cc3)CC[C@@H]2C1 [Example 68, [(7S,9aR)-7-(4-chlorophenyl)-7-hydroxy-3,4,6,8,9,9a-hexahydro-1H-pyrido[1,2-a]pyrazin-2-yl]-[2-chloro-3-(1,2-thiazol-4-yl)phenyl]methanone]"
5,20.7,"O=C(c1cccc(N2CC[C@H](O)C2)c1Cl)N1CCN2C[C@@](O)(c3ccc(F)c(Cl)c3)CC[C@@H]2C1 [Example 43, [(7S,9aR)-7-(3-chloro-4-fluorophenyl)-7-hydroxy-3,4,6,8,9,9a-hexahydro-1H-pyrido[1,2-a]pyrazin-2-yl]-[2-chloro-3-[(3S)-3-hydroxypyrrolidin-1-yl]phenyl]methanone]"
6,4.31,"O=C(c1cccc(-c2ccn[nH]2)c1Cl)N1CCN2C[C@@](O)(c3ccc(Cl)cc3)CC[C@@H]2C1 [Example 3, [(7S,9aR)-7-(4-chlorophenyl)-7-hydroxy-3,4,6,8,9,9a-hexahydro-1H-pyrido[1,2-a]pyrazin-2-yl]-[2-chloro-3-(1H-pyrazol-5-yl)phenyl]methanone]"
7,37.5,"O=C(c1cccc(-c2ccsn2)c1F)N1CCN2C[C@@](O)(c3ccc(Cl)cc3)CC[C@@H]2C1 [Example 56, [(7S,9aR)-7-(4-chlorophenyl)-7-hydroxy-3,4,6,8,9,9a-hexahydro-1H-pyrido[1,2-a]pyrazin-2-yl]-[2-fluoro-3-(1,2-thiazol-3-yl)phenyl]methanone]"
8,10.5,"O=C(c1cccc(/C=C\c2ccccc2)c1Br)N1CCN2C[C@@H](c3ccc(Cl)cc3)CC[C@@H]2C1 [Example 27, [(7R,9aR)-7-(4-chlorophenyl)-1,3,4,6,7,8,9,9a-octahydropyrido[1,2-a]pyrazin-2-yl]-[2-bromo-3-[(Z)-2-phenylethenyl]phenyl]methanone]"
9,0.74,"O=C(c1cccc(-c2[nH]ncc2F)c1Cl)N1CCN2C[C@@](O)(c3ccc(F)c(Cl)c3)CC[C@@H]2C1 [Example 57, [(7S,9aR)-7-(3-chloro-4-fluorophenyl)-7-hydroxy-3,4,6,8,9,9a-hexahydro-1H-pyrido[1,2-a]pyrazin-2-yl]-[2-chloro-3-(4-fluoro-1H-pyrazol-5-yl)phenyl]methanone]"
10,3.08,"O=C(c1cccc(-c2cc[nH]n2)c1Cl)N1CCN2C[C@@](O)(c3ccc(F)c(Cl)c3)CC[C@@H]2C1 [Example 54, [(7S,9aR)-7-(3-chloro-4-fluorophenyl)-7-hydroxy-3,4,6,8,9,9a-hexahydro-1H-pyrido[1,2-a]pyrazin-2-yl]-[2-chloro-3-(1H-pyrazol-3-yl)phenyl]methanone]"
11,79.7,"O=C(c1cccc(N2CC(CO)C2)c1Cl)N1CCN2C[C@@](O)(c3ccc(F)c(Cl)c3)CC[C@@H]2C1 [Example 53, [(7S,9aR)-7-(3-chloro-4-fluorophenyl)-7-hydroxy-3,4,6,8,9,9a-hexahydro-1H-pyrido[1,2-a]pyrazin-2-yl]-[2-chloro-3-[3-(hydroxymethyl)azetidin-1-yl]phenyl]methanone]"
12,72.4,"CC1(O)CCN(c2cccc(C(=O)N3CCN4C[C@@](O)(c5ccc(Cl)cc5)CC[C@@H]4C3)c2Cl)C1 (mixture of isomers) [Example 50, [2-chloro-3-(3-hydroxy-3-methylpyrrolidin-1-yl)phenyl]-[rac-(7R,9aS)-7-(4-chlorophenyl)-7-hydroxy-3,4,6,8,9,9a-hexahydro-1H-pyrido[1,2-a]pyrazin-2-yl]methanone]"
13,9.04,"O=C(c1cccc(-c2cc[nH]n2)c1F)N1CCN2C[C@@](O)(c3ccc(F)c(Cl)c3)CC[C@@H]2C1 [Example 55, [(7S,9aR)-7-(3-chloro-4-fluorophenyl)-7-hydroxy-3,4,6,8,9,9a-hexahydro-1H-pyrido[1,2-a]pyrazin-2-yl]-[2-fluoro-3-(1H-pyrazol-3-yl)phenyl]methanone]"

# Source: US12637454B2, “Heterocyclic monoacylglycerol lipase (MAGL) inhibitors” (Hoffmann-La Roche Inc., priority 2019, dated 2026)
